{"source": "patent US5834259A", "about": "“Process and composition for preparing D-aspartic acid” (Monsanto Company, priority 1996, dated 1998)", "key": {"[1]": {"target": "T1, L-aspartate-α-decarboxylase (Escherichia coli, UniProt P0A790)", "T1 construct": "expressed in transfected cells; host or cells: E. coli W3110 transformed with pIF309 = strain NS3291 (ATCC 98675), whole cells", "T1 sequence (P0A790 25-126)": "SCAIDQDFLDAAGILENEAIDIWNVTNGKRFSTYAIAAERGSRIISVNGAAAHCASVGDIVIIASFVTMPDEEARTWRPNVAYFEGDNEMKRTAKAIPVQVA", "T1 sequence (P0A790 1-24)": "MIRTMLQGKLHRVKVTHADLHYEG", "test": "1.0M D/L-aspartate, 50 g/l cells, reaction B (Example 6)", "format": "biochemical, E. coli K12", "details": "37° C.", "procedure": "1.0M D/L-aspartate was tested as a substrate for two enzyme cell loads, 100 g/l cells, referred to here as reaction \"A\", and 50 g/l cells, referred to here as reaction \"B\".\n133.1 g of D/L-aspartic acid was dissolved in approximately 600 ml deionized H2 O and pH was adjusted to 7.0 with NaOH, using 100 ml of 10N NaOH and a small amount of 1.0N NaOH. The substrate for reaction A was brought to 963 ml with deionized H2 O. The reaction was started with 137 ml cells that were stored in the cold room. For reaction B, the substrate was brought to a volume of 981.5 ml. The reaction was started with […] cells.\nBoth reactions were carried out in 2 L fermentors at pH 7.0 without constant adjustments and at 37° C. Samples were removed over time, centrifuged and the supernatant fluid was diluted and submitted for D- and L-aspartic acid HPLC analysis."}, "[2]": {"target": "T1, L-aspartate-α-decarboxylase", "test": "Temperature study, 50° C. (Example 9)", "format": "biochemical, E. coli K12", "details": "for concentration in supernatant fluid / percent remaining: 1.0M, 100 g/l cells", "procedure": "133.1 g (1 mol) of D/L-aspartic acid was dissolved in deionized H2 O and the pH was adjusted to 7.0 with 10N NaOH, approximately 100 ml. Cells, freshly thawed from -80° C., were added to achieve a final concentration of 100 g/l. Three 2 L fermentors were each charged with 963 ml of substrate solution and 137 ml of cells and then heated to 37° C. and 45° C. while mixing at 300 rpm or heated to 50° C. while mixing at 450 rpm. Samples, approximately 1 ml, were removed over time and pH adjusted to 7.0 with either NaOH or HCl. After centrifugation to remove cells, the supernatant fluid was analyzed for both D- and L-aspartic acid."}}}
{"compound": "N[C@H](CC(=O)O)C(=O)O", "note": "[D-Asp, D-aspartic acid]", "values": [{"measurement": "concentration in supernatant fluid", "setting": "[1]; 0.0000 hr", "result": 56.730, "unit": "mg/mL"}, {"measurement": "concentration in supernatant fluid", "setting": "[1]; 2.0000 hr", "result": 52.420, "unit": "mg/mL"}, {"measurement": "concentration in supernatant fluid", "setting": "[1]; 4.5000 hr", "result": 51.340, "unit": "mg/mL"}, {"measurement": "concentration in supernatant fluid", "setting": "[1]; 7.0000 hr", "result": 50.470, "unit": "mg/mL"}, {"measurement": "stability of the isomer", "setting": "[2]", "result": "stable"}, {"measurement": "concentration in supernatant fluid", "setting": "[2]; 0.000 hr", "result": 54.89, "unit": "mg/mL"}, {"measurement": "concentration in supernatant fluid", "setting": "[2]; 1.000 hr", "result": 54.30, "unit": "mg/mL"}, {"measurement": "percent remaining", "setting": "[2]; 1.000 hr", "result": 52.78, "unit": "%"}, {"measurement": "concentration in supernatant fluid", "setting": "[2]; 3.000 hr", "result": 58.01, "unit": "mg/mL"}, {"measurement": "percent remaining", "setting": "[2]; 3.000 hr", "result": 40.61, "unit": "%"}, {"measurement": "concentration in supernatant fluid", "setting": "[2]; 5.0000 hr", "result": 58.16, "unit": "mg/mL"}, {"measurement": "percent remaining", "setting": "[2]; 5.0000 hr", "result": 36.97, "unit": "%"}, {"measurement": "concentration in supernatant fluid", "setting": "[2]; 7.000 hr", "result": 58.51, "unit": "mg/mL"}, {"measurement": "percent remaining", "setting": "[2]; 7.000 hr", "result": 35.69, "unit": "%"}, {"measurement": "concentration in supernatant fluid", "setting": "[2]; 9.000 hr", "result": 58.88, "unit": "mg/mL"}, {"measurement": "percent remaining", "setting": "[2]; 9.000 hr", "result": 33.99, "unit": "%"}, {"measurement": "concentration in supernatant fluid", "setting": "[2]; 13.50 hr", "result": 59.62, "unit": "mg/mL"}, {"measurement": "percent remaining", "setting": "[2]; 13.50 hr", "result": 34.19, "unit": "%"}, {"measurement": "concentration in supernatant fluid", "setting": "[2]; 23.00 hr", "result": 56.71, "unit": "mg/mL"}, {"measurement": "percent remaining", "setting": "[2]; 23.00 hr", "result": 31.98, "unit": "%"}, {"measurement": "concentration in supernatant fluid", "setting": "[2]; 25.00 hr", "result": 59.85, "unit": "mg/mL"}, {"measurement": "percent remaining", "setting": "[2]; 25.00 hr", "result": 31.86, "unit": "%"}, {"measurement": "concentration in supernatant fluid", "setting": "[2]; 27.00 hr", "result": 56.87, "unit": "mg/mL"}, {"measurement": "percent remaining", "setting": "[2]; 27.00 hr", "result": 26.89, "unit": "%"}, {"measurement": "concentration in supernatant fluid", "setting": "[2]; 32.00 hr", "result": 57.30, "unit": "mg/mL"}, {"measurement": "percent remaining", "setting": "[2]; 32.00 hr", "result": 25.85, "unit": "%"}, {"measurement": "concentration in supernatant fluid", "setting": "[2]; 37.50 hr", "result": 58.48, "unit": "mg/mL"}, {"measurement": "percent remaining", "setting": "[2]; 37.50 hr", "result": 27.54, "unit": "%"}, {"measurement": "concentration in supernatant fluid", "setting": "[2]; 47.00 hr", "result": 57.93, "unit": "mg/mL"}, {"measurement": "percent remaining", "setting": "[2]; 47.00 hr", "result": 25.58, "unit": "%"}, {"measurement": "concentration in supernatant fluid", "setting": "[2]; 52.00 hr", "result": 58.74, "unit": "mg/mL"}, {"measurement": "percent remaining", "setting": "[2]; 52.00 hr", "result": 27.28, "unit": "%"}, {"measurement": "concentration in supernatant fluid", "setting": "[2]; 57.00 hr", "result": 65.56, "unit": "mg/mL"}, {"measurement": "percent remaining", "setting": "[2]; 57.00 hr", "result": 32.42, "unit": "%"}, {"measurement": "concentration in supernatant fluid", "setting": "[2]; 71.00 hr", "result": 57.17, "unit": "mg/mL"}, {"measurement": "percent remaining", "setting": "[2]; 71.00 hr", "result": 25.52, "unit": "%"}, {"measurement": "concentration in supernatant fluid", "setting": "[2]; 77.00 hr", "result": 57.85, "unit": "mg/mL"}, {"measurement": "percent remaining", "setting": "[2]; 77.00 hr", "result": 25.86, "unit": "%"}, {"measurement": "concentration in supernatant fluid", "setting": "[2]; 81.00 hr", "result": 57.41, "unit": "mg/mL"}, {"measurement": "percent remaining", "setting": "[2]; 81.00 hr", "result": 25.54, "unit": "%"}, {"measurement": "concentration in supernatant fluid", "setting": "[2]; 99.75 hr", "result": 59.36, "unit": "mg/mL"}, {"measurement": "percent remaining", "setting": "[2]; 99.75 hr", "result": 26.14, "unit": "%"}]}
{"compound": "N[C@@H](CC(=O)O)C(=O)O", "note": "[L-Asp, L-aspartic acid]", "values": [{"measurement": "concentration in supernatant fluid", "setting": "[1]; 0.0000 hr", "result": 57.440, "unit": "mg/mL"}, {"measurement": "concentration in supernatant fluid", "setting": "[1]; 2.0000 hr", "result": 53.770, "unit": "mg/mL"}, {"measurement": "concentration in supernatant fluid", "setting": "[2]; 0.000 hr", "result": 100.0, "unit": "mg/mL"}, {"measurement": "concentration in supernatant fluid", "setting": "[2]; 1.000 hr", "result": 98.93, "unit": "mg/mL"}, {"measurement": "percent remaining", "setting": "[2]; 1.000 hr", "result": 108.9, "unit": "%"}, {"measurement": "concentration in supernatant fluid", "setting": "[2]; 3.000 hr", "result": 105.7, "unit": "mg/mL"}, {"measurement": "percent remaining", "setting": "[2]; 3.000 hr", "result": 83.78, "unit": "%"}, {"measurement": "concentration in supernatant fluid", "setting": "[2]; 5.0000 hr", "result": 106.0, "unit": "mg/mL"}, {"measurement": "percent remaining", "setting": "[2]; 5.0000 hr", "result": 73.63, "unit": "%"}, {"measurement": "concentration in supernatant fluid", "setting": "[2]; 7.000 hr", "result": 106.6, "unit": "mg/mL"}, {"measurement": "percent remaining", "setting": "[2]; 7.000 hr", "result": 73.63, "unit": "%"}, {"measurement": "concentration in supernatant fluid", "setting": "[2]; 9.000 hr", "result": 107.3, "unit": "mg/mL"}, {"measurement": "percent remaining", "setting": "[2]; 9.000 hr", "result": 70.13, "unit": "%"}, {"measurement": "concentration in supernatant fluid", "setting": "[2]; 13.50 hr", "result": 108.4, "unit": "mg/mL"}, {"measurement": "percent remaining", "setting": "[2]; 13.50 hr", "result": 70.54, "unit": "%"}, {"measurement": "concentration in supernatant fluid", "setting": "[2]; 23.00 hr", "result": 103.3, "unit": "mg/mL"}, {"measurement": "percent remaining", "setting": "[2]; 23.00 hr", "result": 65.98, "unit": "%"}, {"measurement": "concentration in supernatant fluid", "setting": "[2]; 25.00 hr", "result": 109.0, "unit": "mg/mL"}, {"measurement": "percent remaining", "setting": "[2]; 25.00 hr", "result": 65.73, "unit": "%"}, {"measurement": "concentration in supernatant fluid", "setting": "[2]; 27.00 hr", "result": 103.6, "unit": "mg/mL"}, {"measurement": "percent remaining", "setting": "[2]; 27.00 hr", "result": 55.48, "unit": "%"}, {"measurement": "concentration in supernatant fluid", "setting": "[2]; 32.00 hr", "result": 104.4, "unit": "mg/mL"}, {"measurement": "percent remaining", "setting": "[2]; 32.00 hr", "result": 53.33, "unit": "%"}, {"measurement": "concentration in supernatant fluid", "setting": "[2]; 37.50 hr", "result": 106.5, "unit": "mg/mL"}, {"measurement": "percent remaining", "setting": "[2]; 37.50 hr", "result": 58.82, "unit": "%"}, {"measurement": "percent remaining", "setting": "[2]; 47.00 hr", "result": 52.77, "unit": "%"}, {"measurement": "concentration in supernatant fluid", "setting": "[2]; 52.00 hr", "result": 107.0, "unit": "mg/mL"}, {"measurement": "percent remaining", "setting": "[2]; 52.00 hr", "result": 56.28, "unit": "%"}, {"measurement": "concentration in supernatant fluid", "setting": "[2]; 57.00 hr", "result": 119.4, "unit": "mg/mL"}, {"measurement": "percent remaining", "setting": "[2]; 57.00 hr", "result": 66.89, "unit": "%"}, {"measurement": "concentration in supernatant fluid", "setting": "[2]; 71.00 hr", "result": 104.2, "unit": "mg/mL"}, {"measurement": "percent remaining", "setting": "[2]; 71.00 hr", "result": 52.65, "unit": "%"}, {"measurement": "concentration in supernatant fluid", "setting": "[2]; 77.00 hr", "result": 105.4, "unit": "mg/mL"}, {"measurement": "percent remaining", "setting": "[2]; 77.00 hr", "result": 53.35, "unit": "%"}, {"measurement": "concentration in supernatant fluid", "setting": "[2]; 81.00 hr", "result": 104.6, "unit": "mg/mL"}, {"measurement": "percent remaining", "setting": "[2]; 81.00 hr", "result": 52.69, "unit": "%"}, {"measurement": "concentration in supernatant fluid", "setting": "[2]; 99.75 hr", "result": 108.1, "unit": "mg/mL"}, {"measurement": "percent remaining", "setting": "[2]; 99.75 hr", "result": 53.93, "unit": "%"}]}
